Data published in US8790654B2, “Glycosylceramide adjuvant for saccharide antigens” (Novartis AG, priority 2004, dated 2014).

Tested on: CRM protein carrier
Assay: CRM-specific Ig titre in mice immunised with MenC-CRM conjugate with or without α-GalCer
Type: in vivo
Conditions: MenC-CRM conjugate and α-GalCer, compared with conjugate alone; 2wp2 and 2wp3
Procedure: C) Immunisation schedule for mice with different polysaccharides, plain, conjugated or admixed with protein carriers, with and without α-GalCer. Ten groups of wild-type C57BL/6 mice were primed on day 0 with: 1) PBS, 2) 0.1 μg with α-GalCer, 3) 10 μg MenC polysaccharide, 4) 20 μg CRM protein carrier, 5) 30 μg of a MenC-CRM conjugate, 6) 10 μg MenC polysaccharide admixed with CRM protein carrier, or the compositions in 3)-6) and α-GalCer (groups 7-10). Mice were boosted two and four weeks after they were primed with the same composition with which they were primed. Mice were bled 2, 4 and 6 weeks after initial priming (2wp1, 2wp2 and 2wp3) and the levels of antibodies against both the MenC polysaccharide and the CRM carrier were measured.
FIG. 5: α-GalCer enhances the specific antibody response against both the MenC polysaccharide and the CRM protein carrier in a MenC-CRM conjugate. Wild-type mice were primed with 10 μg MenC polysaccharide, 20 μg CRM protein carrier, 10 μg MenC polysaccharide admixed with CRM protein carrier (MenC+CRM), or 30 μg of a MenC-CRM conjugate, or the same compositions with α-GalCer. Mice were boosted two and four weeks after they were primed with the same composition with which they were primed.

## CCCCCCCCCCCCCCCCCCCCCCCCCC(=O)N[C@@H](CO[C@H]1O[C@H](CO)[C@H](O)[C@H](O)[C@H]1O)[C@H](O)[C@H](O)CCCCCCCCCCCCCC [α-GalCer, α-galactosylceramide]
  CRM-specific Ig titre: enhanced
